Data from ChEMBL document CHEMBL1201862, “PubChem BioAssay data set” (2004).
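These data come from cells grown in 96-well plates and exposed to compound for 48 hours at five concentrations. Here, GI50 denotes the concentration required for 50% inhibition of growth.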 Calls of active or inactive are those of the source. Cut-off read from the data, not from the text of the source: active = GI50 up to about 1.1 µM and inactive = higher. Where a SMILES comes first, the peptide text is derived from it. [ ]: non-standard residue; d: D form. Aoe = N[C@@H](CCCCCC(=O)[C@@H]1CO1)C(=O)O

Columns and labels:
Assay in all cases: NCI-60 cell line screen, 48 h
[1] = test system: A498
[2] = test system: ACHN
[3] = test system: BT-549
[4] = test system: CAKI-1
[5] = test system: DU-145
[6] = test system: HCT-116
[7] = test system: KM12
[8] = test system: LOX IMVI
[9] = test system: MDA-MB-435
[10] = test system: Malme-3M
[11] = test system: NCI/ADR-RES
[12] = test system: OVCAR-4
[13] = test system: OVCAR-5
[14] = test system: RPMI-8226
[15] = test system: SF-295
[16] = test system: SK-MEL-28
[17] = test system: SR
[18] = test system: UACC-62
[19] = test system: CCRF-CEM

SMILES | GI50 [1] | GI50 [2] | GI50 [3] | GI50 [4] | GI50 [5] | GI50 [6] | GI50 [7] | GI50 [8] | GI50 [9] | GI50 [10] | GI50 [11] | GI50 [12] | GI50 [13] | GI50 [14] | GI50 [15] | GI50 [16] | GI50 [17] | GI50 [18] | GI50 [19]
COc1ccc2c(c1)CCc1c(-c3noc4c3CCc3cc(OC)ccc3-4)noc1-2 | > 100 µM (inactive) | > 100 µM (inactive) | > 100 µM (inactive) | > 100 µM (inactive) | > 100 µM (inactive) | > 100 µM (inactive) | > 100 µM (inactive) | > 100 µM (inactive) | > 100 µM (inactive) | > 100 µM (inactive) | > 100 µM (inactive) | > 100 µM (inactive) | > 100 µM (inactive) | > 100 µM (inactive) | > 100 µM (inactive) | > 100 µM (inactive) | > 100 µM (inactive) | > 100 µM (inactive) | 
O=c1[nH]/c(=C/c2ccc3c(c2)OCO3)c(=O)[nH]/c1=C/c1ccc2c(c1)OCO2 | > 10 µM (inactive) | > 10 µM (inactive) | > 10 µM (inactive) | > 10 µM (inactive) | > 10 µM (inactive) | > 10 µM (inactive) | > 10 µM (inactive) | > 10 µM (inactive) | > 10 µM (inactive) | > 10 µM (inactive) | > 10 µM (inactive) | > 10 µM (inactive) | > 10 µM (inactive) | > 10 µM (inactive) | > 10 µM (inactive) | 8.89 µM (inactive) |  | > 10 µM (inactive) | > 10 µM (inactive)
CC1(c2ccc(Cl)s2)CC(c2ccc(Cl)s2)=C(C#N)C(=C(C#N)C#N)N1 (stereo not drawn) | 19.4 µM (inactive) | 17.5 µM (inactive) | 20.9 µM (inactive) | 19.1 µM (inactive) | 16.9 µM (inactive) | 17.3 µM (inactive) | 18 µM (inactive) | 22.3 µM (inactive) | 18.4 µM (inactive) | 22.8 µM (inactive) | 19.3 µM (inactive) | 16.5 µM (inactive) | 19.4 µM (inactive) | 32 µM (inactive) | 15 µM (inactive) | 19.4 µM (inactive) |  | 15.8 µM (inactive) | 16 µM (inactive)
CC(=O)N1C(Nc2ccccn2)CCN1c1ccccc1 (stereo not drawn) |  | 7.36 µM (inactive) | > 10 µM (inactive) | > 10 µM (inactive) | > 10 µM (inactive) | > 10 µM (inactive) |  | > 10 µM (inactive) | > 10 µM (inactive) | > 10 µM (inactive) | > 10 µM (inactive) | > 10 µM (inactive) | > 10 µM (inactive) | > 10 µM (inactive) | > 10 µM (inactive) | > 10 µM (inactive) | > 10 µM (inactive) |  | > 10 µM (inactive)
COc1cc(Cn2c3c(c4cc(O)ccc42)C(=O)c2ccccc2C3=O)cc(OC)c1 | 15.4 µM (inactive) | 1.61 µM (inactive) | 1.82 µM (inactive) | 15.2 µM (inactive) | 10.8 µM (inactive) | 0.881 µM (active) | 2.43 µM (inactive) | 31.7 µM (inactive) | 0.743 µM (active) | 8.22 µM (inactive) | 6 µM (inactive) | 4.86 µM (inactive) | 9.23 µM (inactive) | 0.337 µM (active) | 6.85 µM (inactive) | 7.96 µM (inactive) | 0.494 µM (active) | 2.04 µM (inactive) | 
O=C(Nc1ccccc1)c1cc(S(=O)(=O)Nc2nc3cccnc3[nH]2)c(SSc2cc(Cl)c(C(=O)Nc3ccccc3)cc2S(=O)(=O)Nc2nc3cccnc3[nH]2)cc1Cl | > 100 µM (inactive) | > 100 µM (inactive) | > 100 µM (inactive) | > 100 µM (inactive) | > 100 µM (inactive) | > 100 µM (inactive) | > 100 µM (inactive) | > 100 µM (inactive) | > 100 µM (inactive) | > 100 µM (inactive) | > 100 µM (inactive) | > 100 µM (inactive) | > 100 µM (inactive) | > 100 µM (inactive) | > 100 µM (inactive) | > 100 µM (inactive) |  | > 100 µM (inactive) | > 100 µM (inactive)
NC1OC(COC(=O)c2ccccc2)C(O)C(OC(=O)c2ccccc2)C1OC(=O)c1ccccc1 (stereo not drawn) |  | 19.3 µM (inactive) | 20.7 µM (inactive) |  | 40.1 µM (inactive) | 18.8 µM (inactive) |  | 14.4 µM (inactive) | 21.7 µM (inactive) | 16.7 µM (inactive) | 33.3 µM (inactive) | 35.5 µM (inactive) | 24.3 µM (inactive) | > 100 µM (inactive) | 17.2 µM (inactive) | 20.2 µM (inactive) | > 10 µM (inactive) | 14.1 µM (inactive) | 
Cc1cccc2c1Oc1cc(Cl)ccc1C2NC(=O)CCN1CCOCC1 (stereo not drawn) |  |  | > 100 µM (inactive) |  | > 100 µM (inactive) | > 100 µM (inactive) | > 100 µM (inactive) | > 100 µM (inactive) | > 100 µM (inactive) |  | > 100 µM (inactive) | > 100 µM (inactive) | > 100 µM (inactive) |  | > 100 µM (inactive) | > 100 µM (inactive) | > 100 µM (inactive) | 50.1 µM (inactive) | > 100 µM (inactive)
c1ccc(CNCCCCNCCCNCc2ccccc2)cc1 |  | 15.7 µM (inactive) | 16.3 µM (inactive) | 13.6 µM (inactive) | 23.6 µM (inactive) | 17.3 µM (inactive) | 20 µM (inactive) | 17.7 µM (inactive) | 16.4 µM (inactive) | 15.5 µM (inactive) | > 100 µM (inactive) | 17.8 µM (inactive) | 30.2 µM (inactive) | 27.7 µM (inactive) | > 100 µM (inactive) | 16 µM (inactive) | 17.6 µM (inactive) | 16.6 µM (inactive) | 13 µM (inactive)
COc1cc(N2C(=O)C(=O)C3(CCCCC3)C2=O)cc(OC)c1OC |  | > 100 µM (inactive) | > 100 µM (inactive) | > 100 µM (inactive) | > 100 µM (inactive) | > 100 µM (inactive) | > 100 µM (inactive) | > 100 µM (inactive) | > 100 µM (inactive) | > 100 µM (inactive) | > 100 µM (inactive) | > 100 µM (inactive) | > 100 µM (inactive) | > 100 µM (inactive) | > 100 µM (inactive) | > 100 µM (inactive) | > 100 µM (inactive) | > 100 µM (inactive) | > 100 µM (inactive)
CC(NC(=O)C(C)C(=O)NCc1ccc(C(F)(F)F)cc1)C(N)=O (stereo not drawn) |  | > 100 µM (inactive) | 84.7 µM (inactive) | > 100 µM (inactive) | > 100 µM (inactive) | > 100 µM (inactive) | > 100 µM (inactive) |  | > 100 µM (inactive) | 27.9 µM (inactive) | > 100 µM (inactive) |  | > 100 µM (inactive) | > 100 µM (inactive) | > 100 µM (inactive) |  | > 100 µM (inactive) | > 100 µM (inactive) | > 100 µM (inactive)
COc1cc2ccc(/C=C\[N+](=O)[O-])cc2cc1OC | 15.5 µM (inactive) | 1.81 µM (inactive) | 2.32 µM (inactive) | 5.06 µM (inactive) | 2.16 µM (inactive) | 2.34 µM (inactive) | 6.85 µM (inactive) | 1.79 µM (inactive) | 2.86 µM (inactive) |  | 6.43 µM (inactive) | 3.04 µM (inactive) | 13.1 µM (inactive) | 1.67 µM (inactive) | 18.2 µM (inactive) | 2.66 µM (inactive) | 1.98 µM (inactive) | 5.15 µM (inactive) | 1.44 µM (inactive)
C=CCN1C[C@H](C)N([C@H](c2ccc(C(=O)NC(CC)CC)cc2)c2cccc(OC)c2)C[C@H]1C | 21.7 µM (inactive) | 33.9 µM (inactive) | 29.1 µM (inactive) | 22.6 µM (inactive) | 81.8 µM (inactive) | 21.6 µM (inactive) | 37.7 µM (inactive) | 4.38 µM (inactive) | 35.6 µM (inactive) | 20.4 µM (inactive) | 42.8 µM (inactive) | 46 µM (inactive) | 59.6 µM (inactive) |  | 39.8 µM (inactive) |  | 23.7 µM (inactive) | 20.8 µM (inactive) | 41.4 µM (inactive)
Cc1ccc(-n2cc([Si](C)(C)C)nn2)s1 | > 100 µM (inactive) | > 100 µM (inactive) | > 100 µM (inactive) | > 100 µM (inactive) | > 100 µM (inactive) | > 100 µM (inactive) |  | > 100 µM (inactive) | > 100 µM (inactive) | > 100 µM (inactive) | 48.4 µM (inactive) | > 100 µM (inactive) | > 100 µM (inactive) | 22.9 µM (inactive) | > 100 µM (inactive) | > 100 µM (inactive) |  | > 100 µM (inactive) | 
COC1=CC(=O)C2=C(C1=O)[C@H]1CC[C@]3(C)[C@@H](O)CC[C@H]3[C@@H]1CC2 | 52.8 µM (inactive) | 18 µM (inactive) | 17.9 µM (inactive) | 25 µM (inactive) | 17.2 µM (inactive) | 17 µM (inactive) | 18.4 µM (inactive) | 19.8 µM (inactive) | 17.9 µM (inactive) |  | 27.5 µM (inactive) | 17.2 µM (inactive) | 19.2 µM (inactive) | 19.3 µM (inactive) | 16.7 µM (inactive) | 18.9 µM (inactive) | 23.3 µM (inactive) | 17.5 µM (inactive) | 6.67 µM (inactive)
O=C1N[C@@H](Cc2ccccc2)C(=O)N2CCC[C@@H]2C(=O)N[C@@H](CCCCCC(=O)[C@@H]2CO2)C(=O)N[C@H]1Cc1ccccc1 [TRAPOXIN B] (cyclo(FF[dP][Aoe])) | 0.518 µM (active) | 0.00124 µM (active) | 0.389 µM (active) | 0.00157 µM (active) | 0.00136 µM (active) | 0.000256 µM (active) | 0.000735 µM (active) | 0.000472 µM (active) | 0.000546 µM (active) | < 0.000212 µM (active) | 0.0475 µM (active) | 0.221 µM (active) | 0.00197 µM (active) | 0.000332 µM (active) | 0.0145 µM (active) | 0.000713 µM (active) |  | 0.000435 µM (active) | 0.0151 µM (active)
